Data reported in US9493455B2, “Azaindole derivatives as inhibitors of protein kinases” (ORIBASE PHARMA, priority 2012, dated 2016).

Assays:
FGFR2 = target: T1, FGFR2 (Homo sapiens, UniProt P21802); assay: In vitro kinase assay (Z′-LYTE); format: biochemical; conditions: read-out: % of inhibition of the kinase compared to the control
T1 construct: purchased Invitrogen
Outline: (§1)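 Inhibition measured at a single dose, 100 nM, or 10 μM for ABL T315I. Z′-LYTE format with ATP at apparent Km; emission ratio of donor to acceptor quantifies phosphorylation.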

KDR (VEGFR2) = target: T2, KDR (VEGFR2) (Homo sapiens, UniProt P35968); assay: In vitro kinase assay (Z′-LYTE); format: biochemical; conditions: read-out: % of inhibition of the kinase compared to the control
T2 construct: purchased Invitrogen
Outline: as §1

PDGFRA (PDGFR alpha) = target: T3, PDGFRA (PDGFR alpha) (Homo sapiens, UniProt P16234); assay: In vitro kinase assay (Z′-LYTE); format: biochemical; conditions: read-out: % of inhibition of the kinase compared to the control
T3 construct: purchased Invitrogen
Outline: as §1

BRAF = target: T4, BRAF (Homo sapiens, UniProt P15056); assay: In vitro kinase assay (Z′-LYTE); format: biochemical; conditions: compound 100 nM; ATP 100 μM; read-out: % of inhibition of the kinase compared to the control
T4 construct: purchased Invitrogen
Outline: as §1

VEGFR1 = target: T5, VEGFR1 (Homo sapiens, UniProt P17948); assay: In vitro kinase assay (Z′-LYTE); format: biochemical; conditions: read-out: % of inhibition of the kinase compared to the control
T5 construct: purchased Invitrogen
Outline: as §1

FGFR1 = target: T6, FGFR1 (Homo sapiens, UniProt P11362); assay: In vitro kinase assay (Z′-LYTE); format: biochemical; conditions: read-out: % of inhibition of the kinase compared to the control
T6 construct: purchased Invitrogen
Outline: as §1

PDGFRB = target: T7, PDGFRB (Homo sapiens, UniProt P09619); assay: In vitro kinase assay (Z′-LYTE); format: biochemical; conditions: read-out: % of inhibition of the kinase compared to the control
T7 construct: purchased Invitrogen
Outline: as §1

EGFR (ErbB1) T790M L858R = target: T8, EGFR (ErbB1) T790M L858R (Homo sapiens, UniProt P00533, L858R/T790M); assay: In vitro kinase assay (Z′-LYTE); format: biochemical; conditions: read-out: % of inhibition of the kinase compared to the control
T8 construct: purchased Invitrogen
Outline: as §1

EGFR (ErbB1) = target: T9, EGFR (ErbB1) (Homo sapiens, UniProt P00533); assay: In vitro kinase assay (Z′-LYTE); format: biochemical; conditions: read-out: % of inhibition of the kinase compared to the control
T9 construct: purchased Invitrogen
Outline: as §1

SRC = target: T10, SRC (Homo sapiens, UniProt P12931); assay: In vitro kinase assay (Z′-LYTE); format: biochemical; conditions: read-out: % of inhibition of the kinase compared to the control
T10 construct: purchased Invitrogen
Outline: as §1

ABL = target: T11, ABL (Homo sapiens, UniProt P00519); assay: In vitro kinase assay (Z′-LYTE); format: biochemical; conditions: read-out: % of inhibition of the kinase compared to the control
T11 construct: purchased Invitrogen

ABL T315I = target: T12, ABL T315I (Homo sapiens, UniProt P00519, T315I); assay: In vitro kinase assay (Z′-LYTE); format: biochemical; conditions: read-out: % of inhibition of the kinase compared to the control
T12 construct: purchased Invitrogen
Outline: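 Peptide/kinase mix combined with ATP (apparent Km) in 50 mM HEPES pH 7.5, 10 mM MgCl2, 1 mM EGTA, 0.01% BRIJ-35; compound present at 100 nM, except 10 μM for ABL T315I; DMSO 1% final. Protease development, then FRET emission ratio.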

MDA-MB-231 = assay: In vitro cell proliferation assay (MTT); format: cell-based; conditions: Homo sapiens, MDA-MB-231, 72 h
Outline: (§2)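 MTT read-out of proliferation after 72 hr compound exposure; 5×10^3 cells/well, duplicate wells, dose range 10 nM–3 μM.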

PC-3 = assay: In vitro cell proliferation assay (MTT); format: cell-based; conditions: Homo sapiens, PC-3, 72 h
Outline: as §2

HepG2 = assay: In vitro cell proliferation assay (MTT); format: cell-based; conditions: Homo sapiens, HepG2, 72 h
Outline: as §2

BxPC-3 = assay: In vitro cell proliferation assay (MTT); format: cell-based; conditions: Homo sapiens, BXPC-3, 72 h
Outline: as §2

HUVEC = assay: In vitro cell proliferation assay (MTT); format: cell-based; conditions: Homo sapiens, 72 h
Description: Cancer cell lines (5×10^3 cells per well) or HUVEC (1×10^4 cells per well) or HRMEC (1×10^4 cells per well) were distributed in 96-well plates and incubating in duplicate with escalating concentrations (10 nM to 3 μM) of compounds for 72 hr. Cell proliferation was measured using MTT (3 [4,5-dimethylthiazol-2-yl]-2,5-diphenyltetrazolium bromide).

HuCCT1 = assay: In vitro cell proliferation assay (MTT); format: cell-based; conditions: Homo sapiens, HuCCT-1, 72 h
Outline: as §2

H1975 = assay: In vitro cell proliferation assay (MTT); format: cell-based; conditions: Homo sapiens, NCI-H1975, 72 h
Outline: as §2

HT29 = assay: In vitro cell proliferation assay (MTT); format: cell-based; conditions: Homo sapiens, HT-29, 72 h
Outline: as §2

HuH6 Clone 5 = assay: In vitro cell proliferation assay (MTT); format: cell-based; conditions: HUH-6-clone5, 72 h
Outline: as §2

HuH7 = assay: In vitro cell proliferation assay (MTT); format: cell-based; conditions: Homo sapiens, Huh-7, 72 h
Outline: as §2

A549 = assay: In vitro cell proliferation assay (MTT); format: cell-based; conditions: Homo sapiens, A549, 72 h
Outline: as §2

HeLa = assay: In vitro cell proliferation assay (MTT); format: cell-based; conditions: Homo sapiens, 72 h
Outline: as §2

T2 sequence (P35968 20-1356): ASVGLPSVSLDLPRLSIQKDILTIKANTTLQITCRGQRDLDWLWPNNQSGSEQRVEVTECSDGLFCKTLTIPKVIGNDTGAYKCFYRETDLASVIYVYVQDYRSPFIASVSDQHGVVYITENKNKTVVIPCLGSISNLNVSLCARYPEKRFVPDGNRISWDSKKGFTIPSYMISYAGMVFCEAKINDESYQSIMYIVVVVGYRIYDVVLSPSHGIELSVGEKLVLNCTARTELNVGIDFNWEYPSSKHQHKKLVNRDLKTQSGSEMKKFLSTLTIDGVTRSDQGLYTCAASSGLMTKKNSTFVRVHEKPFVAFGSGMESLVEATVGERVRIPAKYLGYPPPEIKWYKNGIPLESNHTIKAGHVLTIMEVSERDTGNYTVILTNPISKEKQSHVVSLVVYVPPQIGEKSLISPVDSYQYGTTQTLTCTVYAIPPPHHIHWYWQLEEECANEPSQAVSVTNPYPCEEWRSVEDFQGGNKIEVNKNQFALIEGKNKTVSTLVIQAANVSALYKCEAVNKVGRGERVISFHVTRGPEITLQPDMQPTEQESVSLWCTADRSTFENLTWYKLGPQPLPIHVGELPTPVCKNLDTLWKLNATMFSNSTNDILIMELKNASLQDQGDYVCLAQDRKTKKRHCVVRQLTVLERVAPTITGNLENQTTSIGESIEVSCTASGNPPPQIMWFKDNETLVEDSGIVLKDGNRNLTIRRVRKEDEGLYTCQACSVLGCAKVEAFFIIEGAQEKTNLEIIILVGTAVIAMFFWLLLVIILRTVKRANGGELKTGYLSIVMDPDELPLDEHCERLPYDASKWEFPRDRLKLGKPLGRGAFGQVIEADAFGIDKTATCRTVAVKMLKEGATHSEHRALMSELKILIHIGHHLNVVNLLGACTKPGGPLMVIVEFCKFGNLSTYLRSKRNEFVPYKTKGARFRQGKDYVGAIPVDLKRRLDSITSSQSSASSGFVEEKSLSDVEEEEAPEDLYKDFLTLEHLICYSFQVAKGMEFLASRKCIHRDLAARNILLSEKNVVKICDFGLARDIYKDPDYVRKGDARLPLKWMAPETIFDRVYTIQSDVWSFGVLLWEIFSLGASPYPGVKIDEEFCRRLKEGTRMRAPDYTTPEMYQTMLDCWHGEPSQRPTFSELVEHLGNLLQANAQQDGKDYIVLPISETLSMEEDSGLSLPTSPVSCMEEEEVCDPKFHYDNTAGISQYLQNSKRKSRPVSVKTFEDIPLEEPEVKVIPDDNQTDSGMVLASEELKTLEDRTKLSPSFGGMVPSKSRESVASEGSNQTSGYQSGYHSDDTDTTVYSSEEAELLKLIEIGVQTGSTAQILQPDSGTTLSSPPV
T1 sequence (P21802 22-821): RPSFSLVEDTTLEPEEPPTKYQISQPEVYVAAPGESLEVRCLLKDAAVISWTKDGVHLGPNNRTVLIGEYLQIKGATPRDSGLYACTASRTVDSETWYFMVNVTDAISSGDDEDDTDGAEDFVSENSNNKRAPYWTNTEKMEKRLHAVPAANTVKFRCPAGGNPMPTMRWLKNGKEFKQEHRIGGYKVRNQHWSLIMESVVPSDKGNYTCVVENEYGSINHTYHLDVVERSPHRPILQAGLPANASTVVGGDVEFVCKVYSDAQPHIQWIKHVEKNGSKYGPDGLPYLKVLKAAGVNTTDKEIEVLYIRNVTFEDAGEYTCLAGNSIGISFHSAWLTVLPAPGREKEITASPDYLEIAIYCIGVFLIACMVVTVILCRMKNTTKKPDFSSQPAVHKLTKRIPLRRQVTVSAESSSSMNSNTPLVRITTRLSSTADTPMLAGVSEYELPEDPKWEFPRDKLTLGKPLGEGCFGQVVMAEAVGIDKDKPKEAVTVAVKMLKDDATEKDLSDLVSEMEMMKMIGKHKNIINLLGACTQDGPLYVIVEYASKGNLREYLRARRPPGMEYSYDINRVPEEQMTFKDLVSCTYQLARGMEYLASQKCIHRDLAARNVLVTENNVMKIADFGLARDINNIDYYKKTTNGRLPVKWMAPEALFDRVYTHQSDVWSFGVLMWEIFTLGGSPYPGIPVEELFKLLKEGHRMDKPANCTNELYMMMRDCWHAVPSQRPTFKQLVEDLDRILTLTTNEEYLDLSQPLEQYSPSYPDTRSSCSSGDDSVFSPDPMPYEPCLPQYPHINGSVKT
T4 sequence (P15056 whole entry): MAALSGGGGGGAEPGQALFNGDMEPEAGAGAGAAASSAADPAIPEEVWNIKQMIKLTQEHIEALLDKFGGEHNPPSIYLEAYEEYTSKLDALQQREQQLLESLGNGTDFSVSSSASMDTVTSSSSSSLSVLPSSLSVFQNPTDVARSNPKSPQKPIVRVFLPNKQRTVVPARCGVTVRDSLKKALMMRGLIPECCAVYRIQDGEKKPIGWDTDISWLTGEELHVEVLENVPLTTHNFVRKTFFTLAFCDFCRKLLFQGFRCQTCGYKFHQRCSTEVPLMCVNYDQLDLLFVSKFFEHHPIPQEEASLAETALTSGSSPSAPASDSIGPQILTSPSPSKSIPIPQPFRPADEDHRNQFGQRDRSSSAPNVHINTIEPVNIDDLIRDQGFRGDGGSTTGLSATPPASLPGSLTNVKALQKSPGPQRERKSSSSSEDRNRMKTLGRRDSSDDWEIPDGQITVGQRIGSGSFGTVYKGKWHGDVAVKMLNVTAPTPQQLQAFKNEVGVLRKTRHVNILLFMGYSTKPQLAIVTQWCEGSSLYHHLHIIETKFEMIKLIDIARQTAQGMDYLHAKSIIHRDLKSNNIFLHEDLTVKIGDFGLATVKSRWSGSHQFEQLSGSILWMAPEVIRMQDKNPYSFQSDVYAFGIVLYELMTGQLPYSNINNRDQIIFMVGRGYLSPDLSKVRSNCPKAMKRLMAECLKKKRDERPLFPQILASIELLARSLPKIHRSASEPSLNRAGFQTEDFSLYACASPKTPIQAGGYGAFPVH
T5 sequence (P17948 27-1338): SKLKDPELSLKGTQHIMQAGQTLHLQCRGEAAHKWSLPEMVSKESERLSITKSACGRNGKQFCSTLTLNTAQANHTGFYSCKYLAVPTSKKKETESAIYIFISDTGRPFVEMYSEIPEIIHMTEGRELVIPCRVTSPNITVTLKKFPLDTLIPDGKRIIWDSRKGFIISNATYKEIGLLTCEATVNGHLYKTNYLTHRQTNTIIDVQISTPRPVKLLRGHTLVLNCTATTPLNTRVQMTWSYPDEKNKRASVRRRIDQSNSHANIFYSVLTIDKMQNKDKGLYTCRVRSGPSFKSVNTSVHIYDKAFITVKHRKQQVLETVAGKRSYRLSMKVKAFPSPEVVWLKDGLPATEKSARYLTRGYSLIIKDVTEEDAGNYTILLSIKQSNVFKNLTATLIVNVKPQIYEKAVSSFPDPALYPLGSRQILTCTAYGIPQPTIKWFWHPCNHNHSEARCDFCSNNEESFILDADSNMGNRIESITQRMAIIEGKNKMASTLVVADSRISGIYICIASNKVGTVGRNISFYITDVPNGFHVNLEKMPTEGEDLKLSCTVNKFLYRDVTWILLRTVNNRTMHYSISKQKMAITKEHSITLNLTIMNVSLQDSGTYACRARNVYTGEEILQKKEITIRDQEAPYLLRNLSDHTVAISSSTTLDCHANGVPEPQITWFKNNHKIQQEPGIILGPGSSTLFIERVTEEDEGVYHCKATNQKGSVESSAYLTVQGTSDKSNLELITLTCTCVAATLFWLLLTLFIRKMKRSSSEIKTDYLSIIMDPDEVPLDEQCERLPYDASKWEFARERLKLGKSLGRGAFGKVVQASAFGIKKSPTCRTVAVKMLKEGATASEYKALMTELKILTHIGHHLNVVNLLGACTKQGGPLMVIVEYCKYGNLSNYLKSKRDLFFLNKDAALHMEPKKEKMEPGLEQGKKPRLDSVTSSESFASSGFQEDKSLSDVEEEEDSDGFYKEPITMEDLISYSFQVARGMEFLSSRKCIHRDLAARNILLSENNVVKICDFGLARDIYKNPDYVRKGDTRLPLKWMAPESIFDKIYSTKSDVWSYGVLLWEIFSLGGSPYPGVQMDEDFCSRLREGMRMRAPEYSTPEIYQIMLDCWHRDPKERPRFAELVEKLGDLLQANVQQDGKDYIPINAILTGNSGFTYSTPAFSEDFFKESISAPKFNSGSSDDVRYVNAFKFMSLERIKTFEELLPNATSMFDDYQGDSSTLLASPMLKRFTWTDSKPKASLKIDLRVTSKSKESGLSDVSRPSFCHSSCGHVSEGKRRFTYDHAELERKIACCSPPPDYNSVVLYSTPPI
T10 sequence (P12931 whole entry): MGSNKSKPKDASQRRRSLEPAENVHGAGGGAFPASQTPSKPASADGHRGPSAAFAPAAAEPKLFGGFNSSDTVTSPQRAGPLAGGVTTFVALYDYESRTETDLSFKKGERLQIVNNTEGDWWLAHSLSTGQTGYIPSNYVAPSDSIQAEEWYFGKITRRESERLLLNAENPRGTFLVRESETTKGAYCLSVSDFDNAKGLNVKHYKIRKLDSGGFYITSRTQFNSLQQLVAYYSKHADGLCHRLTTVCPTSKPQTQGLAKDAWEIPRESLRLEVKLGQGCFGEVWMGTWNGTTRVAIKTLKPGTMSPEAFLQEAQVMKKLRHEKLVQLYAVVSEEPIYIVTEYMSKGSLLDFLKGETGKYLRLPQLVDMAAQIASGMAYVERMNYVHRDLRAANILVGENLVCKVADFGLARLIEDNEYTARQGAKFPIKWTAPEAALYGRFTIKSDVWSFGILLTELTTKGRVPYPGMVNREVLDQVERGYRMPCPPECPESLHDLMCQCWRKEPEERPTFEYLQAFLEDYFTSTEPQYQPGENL

Row | SMILES | inhibition at 0.1 µM (FGFR2) [%] | inhibition at 0.1 µM (KDR (VEGFR2)) [%] | inhibition at 0.1 µM (PDGFRA (PDGFR alpha)) [%] | inhibition at 0.1 µM (BRAF) [%] | inhibition at 0.1 µM (VEGFR1) [%] | inhibition at 0.1 µM (FGFR1) [%] | inhibition at 0.1 µM (PDGFRB) [%] | inhibition at 0.1 µM (EGFR (ErbB1) T790M L858R) [%] | inhibition at 0.1 µM (EGFR (ErbB1)) [%] | inhibition at 0.1 µM (SRC) [%] | inhibition at 10 µM (ABL) [%] | inhibition at 10 µM (ABL T315I) [%] | EC50 (MDA-MB-231) [µM] | EC50 (HepG2) [µM] | EC50 (BxPC-3) [µM] | EC50 (HUVEC) [µM] | EC50 (HuCCT1) [µM] | EC50 (H1975) [µM] | EC50 (HT29) [µM] | EC50 (A549) [µM] | further results
1 | COC(=O)c1cc2cc(NCc3cc(NC(=O)c4cncc(C(F)(F)F)c4)ccc3C)cnc2[nH]1 [OR0604] | < 50 | ≥ 50 | ≥ 50 | ≥ 50 | < 50 | < 50 | ≥ 50 | < 50 | ≥ 50 | ≥ 50 | ≥ 50 | < 50 | ≤ 0.1 | ≤ 0.1 | 0.1 to 1 | 0.1 to 1 | ≥ 1 | ≥ 1 | ≥ 1 | 0.1 to 1 | EC50 (PC-3): ≥ 1 µM; EC50 (HuH6 Clone 5): ≥ 1 µM; EC50 (HuH7): 0.1 to 1 µM
2 | COC(=O)c1cc2cc(NCc3cc(NC(=O)c4cccc(C(F)(F)F)c4)ccc3C)cnc2[nH]1 [OR0606] | < 50 | < 50 | ≥ 50 | < 50 | < 50 | < 50 | < 50 | < 50 | ≥ 50 | ≥ 50 | ≥ 50 | ≥ 50 | ≤ 0.1 | ≤ 0.1 | 0.1 to 1 | ≤ 0.1 | – | 0.1 to 1 | 0.1 to 1 | 0.1 to 1 | EC50 (PC-3): ≥ 1 µM; EC50 (HeLa): ≥ 1 µM
3 | COC(=O)c1cc2cc(NCc3cc(NC(=O)c4cccc(OC(F)(F)F)c4)ccc3C)cnc2[nH]1 [OR0611] | < 50 | < 50 | ≥ 50 | < 50 | < 50 | < 50 | < 50 | < 50 | < 50 | ≥ 50 | ≥ 50 | ≥ 50 | ≤ 0.1 | ≤ 0.1 | ≤ 0.1 | 0.1 to 1 | – | 0.1 to 1 | 0.1 to 1 | 0.1 to 1 | EC50 (PC-3): ≥ 1 µM; EC50 (HeLa): ≥ 1 µM
4 | COC(=O)c1cc2cc(NCc3cc(NC(=O)c4ccc(CN5CCNCC5)c(C(F)(F)F)c4)ccc3C)cnc2[nH]1 [OR0613] | ≥ 50 | ≥ 50 | ≥ 50 | ≥ 50 | < 50 | ≥ 50 | < 50 | ≥ 50 | ≥ 50 | ≥ 50 | ≥ 50 | ≥ 50 | ≤ 0.1 | ≤ 0.1 | 0.1 to 1 | ≤ 0.1 | ≥ 1 | 0.1 to 1 | ≤ 0.1 | 0.1 to 1 | EC50 (PC-3): ≥ 1 µM; EC50 (HuH6 Clone 5): ≥ 1 µM; EC50 (HuH7): 0.1 to 1 µM
5 | COC(=O)c1cc2cc(NCc3cc(NC(=O)c4ccc(Cn5cnc(C)c5)c(C(F)(F)F)c4)ccc3C)cnc2[nH]1 [OR0639] | < 50 | ≥ 50 | ≥ 50 | ≥ 50 | < 50 | < 50 | < 50 | < 50 | ≥ 50 | < 50 | ≥ 50 | ≥ 50 | 0.1 to 1 | 0.1 to 1 | 0.1 to 1 | 0.1 to 1 | ≥ 1 | ≥ 1 | 0.1 to 1 | 0.1 to 1 | EC50 (PC-3): ≥ 1 µM
6 | COC(=O)c1cc2cc(NCc3cc(NC(=O)c4cc(CN5CCN(C)CC5)cc(C(F)(F)F)c4)ccc3C)cnc2[nH]1 [OR0699] | < 50 | ≥ 50 | ≥ 50 | ≥ 50 | – | – | – | < 50 | ≥ 50 | ≥ 50 | – | – | 0.1 to 1 | 0.1 to 1 | ≤ 0.1 | 0.1 to 1 | 0.1 to 1 | 0.1 to 1 | ≤ 0.1 | ≤ 0.1 | EC50 (HuH6 Clone 5): ≥ 1 µM; EC50 (HeLa): 0.1 to 1 µM; EC50 (HuH7): 0.1 to 1 µM
7 | COC(=O)c1cc2cc(NC(=O)c3cc(NC(=O)c4cncc(C(F)(F)F)c4)ccc3C)cnc2[nH]1 [OR0745] | < 50 | < 50 | ≥ 50 | ≥ 50 | – | – | – | < 50 | < 50 | ≥ 50 | – | – | 0.1 to 1 | 0.1 to 1 | – | 0.1 to 1 | ≥ 1 | ≥ 1 | 0.1 to 1 | 0.1 to 1 | EC50 (HuH6 Clone 5): ≥ 1 µM; EC50 (HeLa): ≥ 1 µM; EC50 (HuH7): 0.1 to 1 µM
8 | CNC(=O)c1cc(Oc2ccc(NC(=O)Nc3ccc(Cl)c(C(F)(F)F)c3)cc2)ccn1 [Sorafenib, reference compound] | – | – | – | – | – | – | – | – | – | – | – | – | – | ≥ 1 | – | 0.1 to 1 | ≥ 1 | – | – | – | EC50 (HuH6 Clone 5): ≥ 1 µM; EC50 (HuH7): ≥ 1 µM
